Data published in US12648946B2, “Combination of antibody-pyrrolobenzodiazepine derivative conjugate and PARP inhibitor” (DAIICHI SANKYO COMPANY, LIMITED, priority 2019, dated 2026).
Read-outs that look alike come from different tables or passages of the source.

Columns and labels:
[1] = tested on: human pharyngeal cancer cell line FaDu; test: Cell growth inhibition test (2); format: cell-based; details: 144 h
Experimental: The human pharyngeal cancer cell line FaDu obtained from ATCC (American Type Culture Collection) was used for evaluation. Cells were prepared with MEM containing 10% fetal bovine serum (GE Healthcare), MEM Non-Essential Amino Acids Solution (Thermo Fisher Scientific), and Sodium Pyruvate (Thermo Fisher Scientific) (Thermo Fisher Scientific; hereinafter, referred to as EMEM medium) to reach 6.25×10^3 cells/mL, and 80 μL portions of them were added into a 96-well cell culture microplate. After addition of the cells, the cells were cultured at 37° C. and 5% CO2 overnight.
On the next day, 10 μL portions of pyrrolobenzodiazepine derivative A, B, or C diluted with EMEM medium to 100 pM, 50 pM, 25 pM, 12.5 pM, 6.25 pM, 3.13 pM, 1.56 pM, or 0.78 pM were added to the microplate. To each well without any pyrrolobenzodiazepine derivative, 10 μL of EMEM medium was added. Further, 10 μL portions of olaparib prepared with EMEM medium to reach 1 μM were added to the microplate. To each well without olaparib, 10 μL of EMEM medium was added. Thereafter, the microplate was cultured at 37° C. and 5% CO2 for 6 days. After culturing, the microplate was taken out of the incubator, and left to stand at room temperature for 30 minutes. CellTiter-Glo Luminescent Cell Viability Assay (Promega Corporation) in an amount equivalent to that of the culture solution was added, and stirred using a plate mixer. The microplate was left to stand at room temperature for 10 minutes, and thereafter the amount of emission was measured by using a plate reader (PerkinElmer).
Cell survival rates in wells with derivative A, B, or […] were calculated by using the following formula.
[formula] • a: Mean value of amounts of emission from wells with derivative A, B, or C • b: Mean value of amounts of emission from wells with medium • IC50 values were calculated by using the following formula.
(§1) [formula] • a: Concentration of derivative A, B, or C, a • b: Concentration of derivative A, B, or C, b • c: Cell survival rate when derivative A, B, or C of concentration a was added • d: Cell survival rate when derivative A, B, or C of concentration b was added • a and b satisfy a>b at points sandwiching a cell survival rate of 50%.
Cell survival rates in wells with derivative A, B, or C added together with 1 μM olaparib were calculated by using the following formula.
[formula] • a: Mean value of amounts of emission from wells with derivative A, B, or C added together with 1 μM olaparib • b: Mean value of amounts of emission from wells with 1 μM olaparib • IC50 values were calculated by using the following formula.
as §1, with “and 1 μM olaparib were” for “was”

[2] = tested on: human pancreatic cancer cell line CFPAC-1; test: Antitumor test (1), subcutaneous xenograft; format: in vivo, mouse; details: single administration, talazoparib 0.8 mg/kg oral for 5 days from Day 0, Day 35, CFPAC-1
Experimental: Mouse: Five- to six-week-old female BALB/c nude mice (Charles River Laboratories Japan, Inc.) were subjected to experiment. Assay and calculation formula: In all of the studies, the major axis and minor axis of a tumor were measured twice a week by using an electronic digital caliper ([…] Corp.), and the tumor volume (mm^3) was calculated. The calculation formula is as shown below. [formula] Each of the anti-CLDN6 antibody-drug conjugate ADC1, the anti-HER2 antibody-drug conjugate ADC2, and the anti-TROP2 antibody-drug conjugate ADC3 was diluted with ABS buffer (10 mM acetate buffer (pH 5.5), 5% sorbitol), and a liquid volume of 10 mL/kg was intravenously administered into the tail vein. […] LLC)/Dulbecco's Phosphate-Buffered Saline, and then a liquid volume of 10 mL/kg was intraperitoneally administered. […] LLC)/Dulbecco's Phosphate-Buffered Saline, and then a liquid volume of 10 mL/kg was orally administered. Niraparib was dissolved in DMSO, diluted with 0.5% methylcellulose, and then a liquid volume of 10 mL/kg was orally administered. The described method is common to Examples 34 to 37. […]

In the case of `COc1ccc(C2=CN3C(=O)c4cc(OC)c(OCCCCCOc5cc6c(cc5OC)C(=O)N5CC7(CC7)C[C@H]5C=N6)cc4NC[C@@H]3C2)cc1` [derivative A, (11a′S)-7′-Methoxy-8′-[(5-{[(11aS)-7-methoxy-2-(4-methoxyphenyl)-5-oxo-5,10,11,11a-tetrahydro-1H-pyrrolo[2,1-c][1,4]benzodiazepin-8-yl]oxy}pentyl)oxy]-1′,11a′-dihydro-5′H-spiro[cyclopropane-1,2′-pyrrolo[2,1-c][1,4]benzodiazepine]-5′-one], the IC50 ([1]; read-out: IC50, growth-suppressing effect, added singly, FaDu, 6 days (test 2)) is reported as 8.6 pM and the IC50 ([1]; read-out: IC50, growth-suppressing effect, added together with 1 μM olaparib, FaDu, 6 days) is reported as 4.4 pM.

With `O=C(c1cc(Cc2n[nH]c(=O)c3ccccc23)ccc1F)N1CCN(C(=O)C2CC2)CC1` [olaparib, reference compound] the inhibition at 1 µM ([1]; 1 μM olaparib alone, 6 days) was < 10%.

For `Cn1ncnc1[C@H]1c2n[nH]c(=O)c3cc(F)cc(c23)N[C@@H]1c1ccc(F)cc1` [talazoparib], the “tumor growth inhibition (TGI)” value [2] was 17%.
